Laboratory results: the NIST ThermoML archive (doi:10.1016/j.fluid.2015.10.035)
Numbers after ± are expanded uncertainties.

Tests used:
[1] = 293.15 K; 101.33 kPa; Liquid; Vibrating tube method
[2] = refractive index (Na D-line) (dimensionless); conditions: 293.15 K; 101.33 kPa; Liquid; Standard Abbe refractometry
[3] = Boiling temperature at pressure P; conditions: 101.3 kPa; Liquid; Closed cell (Static) method

Row | SMILES | mass density [1] [kg/m3] | refractive index [2] | Boiling temperature at pressure P [3] [°C]
1 | CC#N [acetonitrile] | 782.1 ± 0.4 | 1.3439 ± 0.0004 | 81.44 ± 0.1
2 | CC(C)O [propan-2-ol] | 786 ± 0.4 | 1.3773 ± 0.0004 | 82.34 ± 0.1
